# Patent US10507211B2, “Treatment for hereditary neuropathy with liability to pressure palsies (HNPP)” (Vanderbilt University, priority 2016, dated 2019)
# Marks after values point to notes of the source that are not given here.
# Legend:
# [1] = reference [23]; cited from earlier work
# [2] = test system: claudin-19; assay: Abnormal claudin-19 staining of paranodes and incisures (tight junctions) in treated Pmp22+/− mice; settings: 0.25 mg/kg/day I.P., n = 8
# Description: Paraffin sections of mouse sciatic nerves were stained with antibodies. Percentages of abnormal paranodes or incisures were manually counted [3]. An abnormal paranode or incisurae was defined as the staining was absent in more than a half of normally stained paranodal or incisure territory. […] White dots outline the margin of the nerve fiber, based on its phase-contrast image. […] As shown in Panel E of FIG. 2, teased sciatic nerve fibers of Pmp22+/+ mice at the 3 months of age were stained with antibodies against claudin-19 to show paranodes (quadrant E1) and incisures (arrowhead in quadrant E3).
# (§2) Thus, Pmp22+/− mice were treated with 0.25, 0.5, 1.0 mg/kg PF3758309 or vehicle—saline (FIG. 7 and Table 1). […] Injection started at age of postnatal day 7.
# In brief, sciatic nerves were fixed, embedded in paraffin, and cut into 5 μm-thick slices. Sections were incubated overnight with primary antibodies at 4° C. After washing, sections were stained for 1 hour with secondary antibodies. The stained slides were examined under a Leica fluorescent microscope (Leica DM6000B). For teased nerve stains, sciatic nerves were fixed in 4% paraformaldehyde (PFA) overnight and teased into individual fibers on glass slides. The slides were dried overnight, reacted with primary antibodies, and followed by secondary antibodies.
# [3] = test system: PAK1; assay: F-actin and phosphorylated PAK1 in Pak1+/+ and Pak1−/− primary Schwann cell culture; type: cell-based; settings: Pak1−/− Schwann cells; 9 μM for 12 hour
# Description: (§1) FIG. 8. […] The total actin and GAPDH were used as loading controls.
# [4] = molecular target: T1, PAK1 (Mus musculus, UniProt O88643); assay: as above; type: cell-based; set-up: Pak1+/+ and Pak1−/− primary Schwann cell culture; endogenous in cells; host or cells: primary Schwann cells, Pak1+/+ and Pak1-/-; settings: Pak1+/+ Schwann cells; 9 μM for 12 hour
# Description: as §1
# Target sequence in this assay (O88643 2-545): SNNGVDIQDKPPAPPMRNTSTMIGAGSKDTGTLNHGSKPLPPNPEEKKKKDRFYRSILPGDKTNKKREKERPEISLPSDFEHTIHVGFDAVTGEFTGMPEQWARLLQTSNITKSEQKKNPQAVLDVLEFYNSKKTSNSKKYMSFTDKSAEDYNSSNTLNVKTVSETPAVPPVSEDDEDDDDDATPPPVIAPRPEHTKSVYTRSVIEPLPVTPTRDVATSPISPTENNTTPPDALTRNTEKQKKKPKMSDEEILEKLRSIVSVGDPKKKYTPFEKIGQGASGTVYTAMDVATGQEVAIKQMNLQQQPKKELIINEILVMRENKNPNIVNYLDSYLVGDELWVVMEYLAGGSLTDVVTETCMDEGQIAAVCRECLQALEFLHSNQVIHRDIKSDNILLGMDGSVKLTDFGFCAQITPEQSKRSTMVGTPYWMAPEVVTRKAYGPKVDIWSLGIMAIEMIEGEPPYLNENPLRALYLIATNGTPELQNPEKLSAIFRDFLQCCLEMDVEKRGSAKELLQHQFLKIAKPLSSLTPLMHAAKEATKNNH
# [5] = test system: Pmp22+/− mice; assay: Percentage of teased nerve fibers with tomacula in treated Pmp22+/− mice; settings: 0.25 mg/kg/day I.P.
# Description: (§3) Injection started at age of postnatal day 7. […] Using teased nerve fibers, the percentages of nerve fibers with tomacula, a key pathology of HNPP, was quantified, as described [8].
# Another 14 Pmp22+/− mice (un-injected) were counted.
# [6] = test system: MEK1; assay: Western blot of phosphorylated MEK1 (S298) in sciatic nerves of treated Pmp22+/− mice; type: in vivo, mouse; settings: 1 week old at start of injection; 0.25 mg/kg/day I.P.; 11 weeks; n = 8
# Description: Residues in other PAKs could be phosphorylated but cannot be substantiated due to the lack of specific antibodies.
# Samples were homogenized for protein isolation.
# [7] = test system: F-actin; assay: F-actin staining of teased nerve fibers with fluorescent phalloidin in treated Pmp22+/− mice; type: in vivo, mouse; settings: versus vehicle
# Protocol: This method was modified from the published study. In brief, sciatic nerves were fixed, embedded in paraffin, and cut into 5 μm-thick slices. Sections were incubated overnight with primary antibodies at 4° C. After washing, sections were stained for 1 hour with secondary antibodies. The stained slides were examined under a Leica fluorescent microscope (Leica DM6000B). For teased nerve stains, sciatic nerves were fixed in 4% paraformaldehyde (PFA) overnight and teased into individual fibers on glass slides. […] For newly formed F-actin staining, as described, the existing F-actin in sciatic nerve explants was saturated with a cell-permeable actin-binding compound, jasplakinolide (Cat#420127, Millipore), at 1 μM in culture media. After washing with PBS, the explants were incubated in a drug-free media for 6 hours at 37° C. The explants were fixed in 4% PFA and teased for F-actin staining using fluorescent phalloidin (1:400, Cat# R415, Life Technologies).
# [8] = molecular target: T1, PAK1; assay: Western blot of phosphorylated PAK1 (T212) in sciatic nerves of treated Pmp22+/− mice; settings: 0.25 mg/kg/day I.P., n = 8
# Target sequence in this assay (O88643 whole entry): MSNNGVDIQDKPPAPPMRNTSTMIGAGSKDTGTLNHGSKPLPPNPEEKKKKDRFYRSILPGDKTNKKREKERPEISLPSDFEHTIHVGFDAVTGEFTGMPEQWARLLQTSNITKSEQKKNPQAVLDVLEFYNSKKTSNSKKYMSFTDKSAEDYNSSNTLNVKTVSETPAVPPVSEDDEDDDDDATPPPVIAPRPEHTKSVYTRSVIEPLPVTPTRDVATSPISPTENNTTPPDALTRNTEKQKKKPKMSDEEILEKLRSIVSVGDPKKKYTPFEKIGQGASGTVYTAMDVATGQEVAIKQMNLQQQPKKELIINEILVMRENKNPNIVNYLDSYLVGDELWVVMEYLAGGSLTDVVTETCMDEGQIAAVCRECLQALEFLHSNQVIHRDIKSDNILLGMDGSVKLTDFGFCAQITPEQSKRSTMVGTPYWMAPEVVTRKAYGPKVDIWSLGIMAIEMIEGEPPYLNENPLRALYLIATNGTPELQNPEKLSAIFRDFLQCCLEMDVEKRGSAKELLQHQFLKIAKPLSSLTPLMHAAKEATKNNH
# Protocol: The specificity of total PAK1, S144, and T212 antibodies was verified using Pak1+/+ and Pak1−/− nerves.
# as §3
# Samples were homogenized for protein isolation. […] Samples were loaded into SDS-PAGE gels and transferred to a PVDF membrane. The membranes were blotted with 5% non-fat milk and incubated overnight at 4° C. with primary antibodies, and followed by secondary antibodies. The immune complexes were detected by the enhanced chemoilluminescence (Cat# NEL103001, Perkin Elmer). In some cases, the blots were stripped and re-probed with additional antibodies. Quantification of band intensity was performed by the ImageJ software (rsbweb.nih.gov/ij/).
# [9] = test system: Pmp22+/− mice; assay: Evaluation of myelin permeability with 3 kDa Dextran in sciatic nerve fascicles of treated Pmp22+/− mice; settings: 3-month-old Pmp22+/− mice; 0.25 mg/kg; versus vehicle; P<0.001
# Protocol: With reference to Panel E of FIG. 7, sciatic nerve fascicles from 3-month-old Pmp22+/− mice were incubated with 3 kDa Dextran, as described [3], to evaluate the myelin permeability. Individual teased nerve fibers were imaged. Arrowheads point to the node of Ranvier. […] With reference to Panel F of FIG. 7, fluorescence intensity was quantified by placing a 2.5 μm×2.5 μm interest box 10 μm away from the middle point of the node of Ranvier.
# In brief, 1 cm sciatic nerve fascicles were submerged in artificial CSF after epineurium removal and sealed at both ends with Vaseline. A 3 kDa Dextran of fluorescence (2 mg/ml, Cat# D3329, Life technologies) was added for one hour incubation at room temperature without oxygenation. After washing, the nerve fascicles were fixed in 4% PFA for 10 minutes and teased into individual nerve fibers on glass slides for fluorescence microscopy. Fluorescence intensity was quantified by placing a 5 μm×5 μm interest box 10 μm away from the middle point of the node of Ranvier.
# [10] = molecular target: T2, PAK2 (Mus musculus, UniProt Q8CIN4); assay: Phosphorylated PAK2 (S20) in primary Schwann cell culture; type: cell-based; settings: Schwann cells; 9 μM for 12 hour
# T2 construct: Pak1+/+ and Pak1−/− primary Schwann cell culture; endogenous in cells; host or cells: primary Schwann cells, Pak1+/+ and Pak1-/-
# T2 sequence (Q8CIN4 whole entry): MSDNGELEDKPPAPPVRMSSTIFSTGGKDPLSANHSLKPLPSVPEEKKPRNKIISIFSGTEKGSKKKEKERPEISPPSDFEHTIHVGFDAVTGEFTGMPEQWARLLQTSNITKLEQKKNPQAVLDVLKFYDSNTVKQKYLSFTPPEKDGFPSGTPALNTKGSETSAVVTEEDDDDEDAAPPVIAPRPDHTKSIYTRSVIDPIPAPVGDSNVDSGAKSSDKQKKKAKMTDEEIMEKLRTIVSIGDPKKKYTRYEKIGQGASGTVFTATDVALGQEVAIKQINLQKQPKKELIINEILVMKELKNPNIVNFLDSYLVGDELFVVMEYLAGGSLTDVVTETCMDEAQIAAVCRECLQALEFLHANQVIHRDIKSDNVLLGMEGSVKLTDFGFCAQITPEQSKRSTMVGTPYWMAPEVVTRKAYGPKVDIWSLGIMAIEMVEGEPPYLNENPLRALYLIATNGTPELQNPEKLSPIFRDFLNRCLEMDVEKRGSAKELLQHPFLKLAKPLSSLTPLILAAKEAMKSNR
# Description: as §1
# [11] = test system: Pmp22+/− mice; assay: Nerve conduction study (NCS) on sciatic nerves of treated Pmp22+/− mice; settings: for CV(m/s): 0.25 mg/kg/day I.P., n = 8
# Protocol: as §2
# In FIG. 7, Panel B, CMAP amplitudes were measured prior to the treatment.
# NCS was previously described [8]. […] A skilled technician gets NCS done in each mouse within 6 minutes. […] CMAP was recorded from the intrinsic foot muscle using needle electrodes. Stimulation electrodes were positioned percutaneously at the sciatic notch and adjacent to the tibial nerve at the ankle. CMAP amplitudes were measured from baseline to the peak of negative deflection.
# [12] = test system: Pmp22+/− mice; assay: Mouse tolerance to PF3758309 (i.p. daily); type: in vivo
# Description: Pmp22+/− mice were backcrossed with C57Bl6J mice (Jackson Lab) for more than 10 generations to reach congenic. Mice were genotyped as described. The congenic Pmp22+/− mice have been extensively characterized.
# For PAK1 inhibitor (PF3758309) injections, Pmp22+/− mice were randomized into vehicle and treated groups. Based on the power calculation of variations derived from mouse compound nerve action potentials, 7 mice for each group would have a 92% chance to detect a significant difference. PF-3758309 (Cat# CT-PF0375, ChemieTek) was dissolved in normal saline for intraperitoneal injection (i.p.) daily.
# [13] = 1 week old at start of injection, 11 weeks
# [14] = 6-11 month age at start of injection, 4 weeks
structure (smiles),measurement,setting,value
Cc1nc(Nc2n[nH]c3c2CN(C(=O)N[C@H](CN(C)C)c2ccccc2)C3(C)C)c2sccc2n1 [PF-3758309],penetration into the nervous system,[1],penetrated into the nervous system
same,% abnormal Claudin-19 (incisures),"[2]; incisures, 1 week old at start of injection, 11 weeks",27.7 ± 4.6 ^b %
same,% abnormal Claudin-19 (paranodes),[2]; [13],36.5 ± 18.4 ^a %
same,% abnormal Claudin-19 (paranodes),[2]; [14],43.5 ± 13.3 ^a %
same,F-actin level,[3],failed to change
same,F-actin level,[4],hardly detectable
same,level of phosphorylated PAK1 (S144),[4],suppressed
same,level of phosphorylated PAK1 (T212),[4],suppressed
same,% Tomacula,"[5]; 1 week old at start of injection, 11 weeks, n = 8",27.3 ± 4.5%
same,% Tomacula +outlier,"[5]; 6-11 month age at start of injection, 4 weeks, outlier included",25.2 ± 7.5%
same,% Tomacula −outlier,"[5]; 6-11 month age at start of injection, 4 weeks, outlier taken off",22.8 ± 4.3 ^d %
same,Ratio (S298/MEK1),[6],0.39 ± 0.2
same,levels of F-actin,"[7]; 0.25 mg/kg i.p. daily for 11 weeks, 3-month-old Pmp22+/− mice",suppressed
same,F-actin levels,"[7]; mice enrolled at 6-11 months, 0.25 mg/kg",significantly lower
same,Ratio (T212/PAK1),[8]; [13],0.61 ± 0.0
same,Ratio (T212/PAK1),[8]; [14],0.26 ± 0.1
same,3 kDa Dextran fluorescence intensity (myelin permeability),[9],significantly decreased
same,level of phosphorylated PAK2 (S20),[10],inhibited
same,total PAK2 levels,[10],not altered
same,CMAP amplitude,"[11]; 1.00 mg/kg i.p. daily for 11 weeks from postnatal day 7, eight 3-month-old Pmp22+/− mice (Pmp22+/+ 3.2±0.6 mV)",1.5±0.8 mV
same,decline of CMAP amplitudes,"[11]; 0.25, 0.5, 1.0 mg/kg i.p. daily for 11 weeks from postnatal day 7, versus vehicle",prevented the decline of CMAP amplitudes with all three dosages
same,CV(m/s),[11]; [13],17.8 ± 3.0 m/s
same,CV(m/s),[11]; [14],19.7 ± 11.1 m/s
same,decrease of CMAP amplitudes over the course of treatment,"[11]; mice enrolled at 6-11 months, 0.25 mg/kg, vehicle fell from 1.6±0.7 mV to 0.7±0.2 mV",completely prevented
same,mortality and side-effect,"[12]; 0.25 mg/kg, treated for 11 weeks",no increase of mouse mortality and observable side-effect
same,mice killed,"[12]; 2.5 mg/kg or 25 mg/kg i.p. daily, 20 Pmp22+/− mice, within 15 days",over 50%
same,body weight,"[12]; 2.5 mg/kg or 25 mg/kg i.p. daily, within 15 days",drastic reduction of body weight
same,"tolerance (body weight, death)","[12]; 0.25, 0.5, 1.0 mg/kg i.p. daily, 11 weeks",tolerated these doses well with no change of body weight or increase of death
